{"source": "patent US20080312303A1", "about": "“Imidazole Derivatives and Their Use for Modulating the Gabaa Receptor Complex” (NeuroSearch A/S, priority 2005, published 2008)"}
{"target": "benzodiazepine modulatory unit (GABAA receptor complex)", "experiment": "In vitro inhibition of 3H-flunitrazepam (3H-FNM) binding", "design": "species or system rat", "settings": "inhibition of specific binding of 3H-FNM (1 nM); cerebral cortex membranes from male Wistar rats; 40 min at 2° C.", "experimental": "In vitro inhibition of ^3H-flunitrazepam (^3H-FNM) binding\n[…] the benzodiazepine modulatory unit can selectively be labelled with ^3H-flunitrazepam.\nPreparations are performed at 0-4° C. unless otherwise indicated. Cerebral cortex from male Wistar rats (150-200 g) is homogenised for 5-10 sec in 20 ml Tris-HCl (30 mM, pH 7.4) using an Ultra-Turrax homogeniser. The suspension is centrifuged at 27,000×g for 15 min and the pellet is washed three times with buffer (centrifuged at 27,000×g for 10 min). The washed pellet is homogenized in 20 ml of buffer and incubated on a water bath (37° C.) for 30 min to remove endogenous GABA and then centrifuged for 10 min at 27,000×g. The pellet is then homogenized in buffer and centrifuged for 10 min at 27,000×g. The final pellet is resuspended in 30 ml buffer and the preparation is frozen and stored at −20° C.\nThe membrane preparation is thawed and centrifuged at 2° C. for 10 min at 27,000×g. The pellet is washed twice with 20 ml 50 mM Tris-citrate, pH 7.1 using an Ultra-Turrax homogeniser and centrifuged for 10 min at 27,000×g. The final pellet is resuspended in 50 mM Tris-citrate, pH 7.1 (500 ml buffer per g of original tissue), and then used for binding assays. Aliquots of 0.5 ml tissue are added to 25 μl of test solution and 25 μl of ^3H-FNM (1 nM, final concentration), mixed and incubated for 40 min at 2° C. Non-specific binding is determined using Clonazepam (1 μM, final concentration). After incubation the samples are added 5 ml of ice-cold buffer and poured directly onto Whatman GF/C glass fibre filters under suction and immediately washed with 5 ml ice-cold buffer. The amount of radioactivity on the filters is determined by conventional liquid scintillation counting. Specific binding is total binding minus non-specific binding.\n25-75% inhibition of specific binding must be obtained, before calculation of an IC50.\nThe test value will be given as IC50 (the concentration (μM) of the test substance which inhibits the specific binding of ^3H-FNM by 50%).", "units": {"IC50": "nM"}}
{"smiles": "Nc1cccc(-c2cn(-c3cccc(-c4ccccc4)c3)cn2)c1", "note": "[1-Biphenyl-3-yl-4-(3-amino-phenyl)-1H-imidazole]", "IC50": 800}
{"smiles": "COc1ccc(-c2cn(-c3cccc(-c4ccccc4)c3)cn2)cc1", "note": "[1-Biphenyl-3-yl-4-(4-methoxy-phenyl)-1H-imidazole]", "IC50": 460}
{"smiles": "N#Cc1cccc(-n2cnc(-c3ccccc3)c2)c1", "note": "[3-(4-Phenyl-imidazol-1-yl)-benzonitrile]", "IC50": 100}
